These compounds were tested against T1, BCL6 (Homo sapiens, UniProt P41182) (assay: Immunofluorescence high content imaging of BCL6 degradation in T47D cells). Settings: T47D breast cancer epithelial cells, 3 days incubation.
T1 construct: endogenous in cells; host or cells: T47D breast cancer epithelial cells
Format: cell-based
Experimental: Immunofluorescence Protocol for High Content Imaging of BCL6
T47D cells were seeded in 100 μl volume of RPMI11640-10% FBS in a 96-well black/clear bottom plates for adherent lines (Corning #3904).
Day 1. T47D breast cancer epithelial cells were seeded at a density so that confluence is ˜70-90% at endpoint. Cells were seeded at 7K/0.1 mL/well the morning prior to the addition of exemplary bifunctional degradation compounds.
Day 2. Prepare an 11 point 3-fold serial dilution of exemplary bifunctional compound in DMSO and aliquot an appropriate volume to cell growth media to generate a 2× final concentration of exemplary bifunctional compound. Add an equal volume (0.1 ml) of 2× exemplary bifunctional compound/media mix to previously plated cells, for a final top concentration in aqueous cell growth media of 0.1 or 1 μM. Incubate for 3 days at 37° C., 5% CO2.
Day 5 Immunofluorescence. Discard cell media. Wash wells with 200 μl of room temperature phosphate-buffered saline (PBS). Prepared 4% paraformaldehyde (PFA) from 16% PFA (Electron Microscopy Sciences #15710) using 1×PBS. Fifty μL of 4% PF was added to each well and incubate for 15 minutes at room temperature to fix the cells. The PFA was aspirated and the cells washed twice with PBS (200 μL)).
Prepared 0.1% Triton X-100 in PBS using 10% triton X-100 stock. The cells were permeabilized by adding 100 μL of the 0.1% Triton X-100 in PBS to each well to permeabilize cells and incubating at room temperature for 15 minutes. Cells were washed twice with PBS.
Prepared 3% BSA/PBS (from Thermofisher #37515 Blocker BSA in TBS, 10%), and 100 μL was added to each well. The cells were incubated for at least 1 hour at room temperature.
Prepared 1% BSA/PBS using Blocker BSA/PBS, and the 3% BSA/PBS removed from the wells.
For no primary antibody controls, 50 μL 1% BSA/PBS was added.
Primary antibody (BCL6 Rb Ab, CST-14895, Cell Signaling) was diluted 1:300 in 1% BSA/PBS using Blocker BSA/PBS.
Fifty μl of primary antibody added to all remaining wells (i.e., all wells other than the primary antibody controls) and the cells were incubated overnight at 4° C. with slow orbital movement.
Day 6. Contents of the wells was removed and the cells washed four times with 200 μL PBS. 1% BSA/PBS was prepared using Blocker BSA in PBS.
Diluted secondary antibody goat anti-Rb IgG Alexa-488 1:1000, and cell mask-Alexa-647 1:3000 in 1% BSA/PBS in the same mix. Add 50 μL to each well and incubate at room temperature for 1 hour in the dark.
Cells were washed three times with 200 μL PBS, and then incubated for 10 minutes with 100 μL Hoechst dye at 1 μg/mL (20 mM stock) to stain cell nuclei. Wells were then washed with 200 μl PBS, and 100 μL of PBS was added to each well and the plate covered plate with a plastic opaque cover. Plates were stored at […] and covered in aluminum foil until imaged.
Plates were equilibrated to room temperature prior to reading. The bottom of the plate was wiped with 70% isopropanol immediately prior to imaging.
Imaging: • 10×, 4 fields/well, include Top hat smoothing in the analysis protocol.
Supplies/Reagents: • 16% paraformaldehyde: Electron Microscopy Sciences #15710 • Hoechst: Thermofisher #62249 • Blocker BSA in PBS, 10%: Thermofisher #37515 • Blocker BSA in TBS, 10%: Thermofisher #37520 • Goat anti-rabbit or mouse AlexaFluor-488: Thermofisher #A11008 • Cell mask deep red AlexaFluor-647: Thermofisher #C10046 • Wash buffer, PBS: 20×PBS, Thermofisher
For `CNC(=O)COc1cc2cc(Nc3nc(N4CCC(O[C@H]5C[C@H](N6CCN(c7ccc8c(c7F)[C@@H](C)N([C@H]7CCC(=O)NC7=O)C8=O)[C@H](C)C6)C5)CC4)ncc3Cl)ccc2n(C(C)C)c1=O` (single isomer, unassigned) [Compound 30], the DC50 was 10 to 50 nM and the Dmax was less than 50%.
`CNC(=O)COc1cc2cc(Nc3nc(N4CCC(O[C@H]5C[C@H](N6CCN(c7ccc8c(c7F)[C@@H](C)N([C@@H]7CCC(=O)NC7=O)C8=O)[C@H](C)C6)C5)CC4)ncc3Cl)ccc2n(C(C)C)c1=O` (single isomer, unassigned) [Compound 31] showed a DC50 of less than 10 nM.
`CNC(=O)COc1cc2cc(Nc3nc(N4CCC(O[C@H]5C[C@H](N6CCN(c7ccc8c(c7Cl)[C@@H](C)N([C@H]7CCC(=O)NC7=O)C8=O)[C@H](C)C6)C5)CC4)ncc3Cl)ccc2n(C(C)C)c1=O` (single isomer, unassigned) [Compound 32] was tested, and the DC50 was less than 10 nM and the Dmax was no less than 70%.
`CNC(=O)COc1cc2cc(Nc3nc(N4CCC(O[C@H]5C[C@H](N6CCN(c7ccc8c(c7Cl)[C@@H](C)N([C@@H]7CCC(=O)NC7=O)C8=O)[C@H](C)C6)C5)CC4)ncc3Cl)ccc2n(C(C)C)c1=O` (single isomer, unassigned) [Compound 33] gave a DC50 of less than 10 nM and a Dmax of no less than 70%.
Work on `CNC(=O)COc1cc2cc(Nc3nc(N4CCC(O[C@H]5C[C@H](N6CCN(c7ccc8c(c7Cl)[C@H](C)N([C@H]7CCC(=O)NC7=O)C8=O)[C@H](C)C6)C5)CC4)ncc3Cl)ccc2n(C(C)C)c1=O` (single isomer, unassigned) [Compound 34] yielded a DC50 of 10 to 50 nM and a Dmax of less than 50%.
Compound `CNC(=O)COc1cc2cc(Nc3nc(N4CCC(O[C@H]5C[C@H](N6CCN(c7ccc8c(c7Cl)[C@H](C)N([C@@H]7CCC(=O)NC7=O)C8=O)[C@H](C)C6)C5)CC4)ncc3Cl)ccc2n(C(C)C)c1=O` (single isomer, unassigned) [Compound 35] has a DC50 of less than 10 nM and a Dmax of 50 to 70%.
`CNC(=O)COc1cc2cc(Nc3nc(N4CCC(O[C@H]5C[C@H](N6CCC(c7cccc8c7n(C)c(=O)n8C7CCC(=O)NC7=O)CC6)C5)CC4)ncc3Cl)ccc2n(C(C)C)c1=O` (stereo partly drawn) [Compound 1, 2-({6-[(5-chloro-2-{4-[(1r,3r)-3-{4-[1-(2,6-dioxopiperidin-3-yl)-3-methyl-2-oxo-2,3-dihydro-1H-1,3-benzodiazol-4-yl]piperidin-1-yl}cyclobutoxy]piperidin-1-yl}pyrimidin-4-yl)amino]-2-oxo-1-(propan-2-yl)-1,2-dihydroquinolin-3-yl}oxy)-N-methylacetamide] was tested, and the DC50 was less than 10 nM and the Dmax was no less than 70%.
For `CNC(=O)COc1cc2cc(Nc3nc(N4CCC(O[C@H]5C[C@H](N6CCN(c7cccc8c7n(C)c(=O)n8C7CCC(=O)NC7=O)CC6)C5)CC4)ncc3Cl)ccc2n(C(C)C)c1=O` (stereo partly drawn) [Compound 2, 2-({6-[(5-chloro-2-{4-[(1r,3r)-3-{4-[1-(2,6-dioxopiperidin-3-yl)-3-methyl-2-oxo-2,3-dihydro-1H-1,3-benzodiazol-4-yl]piperazin-1-yl}cyclobutoxy]piperidin-1-yl}pyrimidin-4-yl)amino]-2-oxo-1-(propan-2-yl)-1,2-dihydroquinolin-3-yl}oxy)-N-methylacetamide], the DC50 was less than 10 nM and the Dmax was no less than 70%.
Work on `CNC(=O)COc1cc2cc(Nc3nc(N4CCC(O[C@H]5C[C@H](N6CCN(c7ccc8c(c7)n(C)c(=O)n8C7CCC(=O)NC7=O)CC6)C5)CC4)ncc3Cl)ccc2n(C(C)C)c1=O` (stereo partly drawn) [Compound 3, 2-({6-[(5-chloro-2-{4-[(1r,3r)-3-{4-[1-(2,6-dioxopiperidin-3-yl)-3-methyl-2-oxo-2,3-dihydro-1H-1,3-benzodiazol-5-yl]piperazin-1-yl}cyclobutoxy]piperidin-1-yl}pyrimidin-4-yl)amino]-2-oxo-1-(propan-2-yl)-1,2-dihydroquinolin-3-yl}oxy)-N-methylacetamide] yielded a DC50 of less than 10 nM and a Dmax of no less than 70%.
Compound `CNC(=O)COc1cc2cc(Nc3nc(N4CCC(O[C@H]5C[C@H](N6CCC(c7ccc8c(c7)n(C)c(=O)n8C7CCC(=O)NC7=O)CC6)C5)CC4)ncc3Cl)ccc2n(C(C)C)c1=O` (stereo partly drawn) [Compound 4, 2-({6-[(5-chloro-2-{4-[(1r,3r)-3-{4-[1-(2,6-dioxopiperidin-3-yl)-3-methyl-2-oxo-2,3-dihydro-1H-1,3-benzodiazol-5-yl]piperidin-1-yl}cyclobutoxy]piperidin-1-yl}pyrimidin-4-yl)amino]-2-oxo-1-(propan-2-yl)-1,2-dihydroquinolin-3-yl}oxy)-N-methylacetamide] has a DC50 of less than 10 nM and a Dmax of no less than 70%.
Work on `CNC(=O)COc1cc2cc(Nc3nc(N4CCC(O[C@H]5C[C@H](N6CCN(c7ccc(NC8CCC(=O)NC8=O)cc7)CC6)C5)CC4)ncc3Cl)ccc2n(C(C)C)c1=O` (stereo partly drawn) [Compound 5, 2-({6-[(5-chloro-2-{4-[(1r,3r)-3-(4-{4-[(2,6-dioxopiperidin-3-yl)amino]phenyl}piperazin-1-yl)cyclobutoxy]piperidin-1-yl}pyrimidin-4-yl)amino]-2-oxo-1-(propan-2-yl)-1,2-dihydroquinolin-3-yl}oxy)-N-methylacetamide] yielded a DC50 of 50 to 100 nM.
Compound `CNC(=O)COc1cc2cc(Nc3nc(N4CCC(O[C@H]5C[C@H](N6CCN(c7ccc8c(n7)n(C)c(=O)n8C7CCC(=O)NC7=O)CC6)C5)CC4)ncc3Cl)ccc2n(C(C)C)c1=O` (stereo partly drawn) [Compound 6, 2-({6-[(5-chloro-2-{4-[(1r,3r)-3-{4-[1-(2,6-dioxopiperidin-3-yl)-3-methyl-2-oxo-1H,2H,3H-imidazo[4,5-b]pyridin-5-yl]piperazin-1-yl}cyclobutoxy]piperidin-1-yl}pyrimidin-4-yl)amino]-2-oxo-1-(propan-2-yl)-1,2-dihydroquinolin-3-yl}oxy)-N-methylacetamide] has a DC50 of less than 10 nM and a Dmax of no less than 70%.
For `CCn1c(=O)n(C2CCC(=O)NC2=O)c2ccc(N3CCN([C@H]4C[C@H](OC5CCN(c6ncc(Cl)c(Nc7ccc8c(c7)cc(OCC(=O)NC)c(=O)n8C(C)C)n6)CC5)C4)CC3)cc21` (stereo partly drawn) [Compound 7], the DC50 was less than 10 nM and the Dmax was no less than 70%.
`CNC(=O)COc1cc2cc(Nc3nc(N4CCC(O[C@H]5C[C@H](N6CCN(c7ccc8c(c7F)n(C)c(=O)n8C7CCC(=O)NC7=O)CC6)C5)CC4)ncc3Cl)ccc2n(C(C)C)c1=O` (stereo partly drawn) [Compound 8, 2-({6-[(5-chloro-2-{4-[(1r,3r)-3-{4-[1-(2,6-dioxopiperidin-3-yl)-4-fluoro-3-methyl-2-oxo-2,3-dihydro-1H-1,3-benzodiazol-5-yl]piperazin-1-yl}cyclobutoxy]piperidin-1-yl}pyrimidin-4-yl)amino]-2-oxo-1-(propan-2-yl)-1,2-dihydroquinolin-3-yl}oxy)-N-methylacetamide] gave a DC50 of less than 10 nM and a Dmax of no less than 70%.
With `CNC(=O)COc1cc2cc(Nc3nc(N4CCC(O[C@H]5C[C@H](N6CCN(c7cc8c(cc7F)n(C7CCC(=O)NC7=O)c(=O)n8C)CC6)C5)CC4)ncc3Cl)ccc2n(C(C)C)c1=O` (stereo partly drawn) [Compound 9, 2-({6-[(5-chloro-2-{4-[(1r,3r)-3-{4-[1-(2,6-dioxopiperidin-3-yl)-6-fluoro-3-methyl-2-oxo-2,3-dihydro-1H-1,3-benzodiazol-5-yl]piperazin-1-yl}cyclobutoxy]piperidin-1-yl}pyrimidin-4-yl)amino]-2-oxo-1-(propan-2-yl)-1,2-dihydroquinolin-3-yl}oxy)-N-methylacetamide] the DC50 was less than 10 nM and the Dmax was no less than 70%.
With `CNC(=O)COc1cc2cc(Nc3nc(N4CCC(O[C@H]5C[C@H](N6CCN(c7cc(F)c8c(c7)n(C)c(=O)n8C7CCC(=O)NC7=O)CC6)C5)CC4)ncc3Cl)ccc2n(C(C)C)c1=O` (stereo partly drawn) [Compound 10, 2-({6-[(5-chloro-2-{4-[(1r,3r)-3-{4-[1-(2,6-dioxopiperidin-3-yl)-7-fluoro-3-methyl-2-oxo-2,3-dihydro-1H-1,3-benzodiazol-5-yl]piperazin-1-yl}cyclobutoxy]piperidin-1-yl}pyrimidin-4-yl)amino]-2-oxo-1-(propan-2-yl)-1,2-dihydroquinolin-3-yl}oxy)-N-methylacetamide] the DC50 was less than 10 nM and the Dmax was no less than 70%.
